The text below walks through data of patent US20090176857A1, “Use of Organic Compounds” (priority 2005, published 2009).

Series [1] relates to patients with constipation predominant and alternating forms of IBS. The note with it: literature abstract; cited from earlier work.
Series [2] relates to women with IBS-C (Rome II criteria) and IBS-M (modification of Rome II). Kind of series: Randomized, double-blind, placebo-controlled, multicenter study, 4 weeks treatment, in patients with IBS-C and IBS-M. The format is in vivo. The note with it: for days/week with no BMs (mean) / stool consistency score using a 7-patient scale (mean) / days/wk with straining (mean) / weekly BM frequency (mean): p<0.05. Here is the method: Evaluation of the effect of tegaserod (T) on multiple symptoms in women with mixed/alternating bowel habits.
METHODS: A randomized, double-blind, placebo-controlled, multicenter study was performed in patients with IBS-C (based on Rome II criteria) and IBS-M (modification of Rome II). The primary efficacy variable was the patients' assessment of satisfactory relief over 4 weeks treatment with T 6 mg bid or Placebo (P). The proportion of patients reporting satisfactory relief of 4 weeks (75% rule) and improvement during each of the 4 weeks in individual IBS symptoms were also assessed. Treatments were compared using a generalized linear model with logit link.
RESULTS: 661 women were randomized (IBS-C 337; IBS-M 324). Baseline symptom assessment clearly distinguished between the IBS-C and the IBS-M cohorts. Statistically significant differences were found between the two cohorts in bowel movement (BM) frequency, stool consistency and straining. T provided statistically significant improvement in satisfactory relief of IBS symptoms over a 4-week treatment (odds ratio 1.75; 95% CI: 1.35, 2.25; p-value<0.001) for the IBS-C and IBS-M cohorts. […] Adverse event discontinuations were low (IBS-C: T 1.2% v P 2.4% and IBS-M: T 2.5% v P 3.6%). Most frequent AEs (with discontinuations) were diarrhea (1.1%), headache (0.6%) and nausea (0.3%). No clinically significant diarrhea or colitis of any type was reported.

For `[H]/N=C(/NCCCCC)N/N=C/c1c[nH]c2ccc(OC)cc12` [T, tegaserod], in series [1], the “safety and tolerability profile” value is “favourable safety and tolerability profile”. Also, in series [2] (IBS-C and IBS-M cohorts, T 6 mg bid vs placebo, 95% CI: 1.35, 2.25, p<0.001), the “satisfactory relief of IBS symptoms over a 4-week treatment, odds ratio” value is given as 1.75. The “percentage of patients experiencing satisfactory relief of IBS symptoms (75% rule)” value in series [2] (IBS-C cohort, T 6 mg bid, 4 weeks, placebo 28.9%, p=0.008) worked out at 43.3%; in series [2] (IBS-M cohort, T 6 mg bid, 4 weeks, placebo 36.3%, p=0.010), 52.3%. In addition, the “days/week with no BMs (mean)” value in series [2] (IBS-C cohort, T 6 mg bid, placebo 2.18) is reported as 2.31 days/week; in series [2] (IBS-M cohort, T 6 mg bid, placebo 1.68), 1.39 days/week. In addition, the Adverse event discontinuations in series [2] (IBS-C cohort, T 6 mg bid, placebo 2.4%) came out at 1.2%; in series [2] (IBS-M cohort, T 6 mg bid, placebo 3.6%), 2.5%. In addition, the “stool consistency score using a 7-patient scale (mean)” value in series [2] (IBS-C cohort, T 6 mg bid, placebo 2.89) was 3.53; in series [2] (IBS-M cohort, T 6 mg bid, placebo 3.49), 3.95. Besides, the “days/wk with straining (mean)” value was found to be 3.08 days/wk in series [2] (IBS-C cohort, T 6 mg bid, placebo 3.55) and 2.42 days/wk in series [2] (IBS-M cohort, T 6 mg bid, placebo 2.87). In addition, the “weekly BM frequency (mean)” value stood at 6.88 in series [2] (IBS-C cohort, T 6 mg bid, placebo 6.06) and 9.78 in series [2] (IBS-M cohort, T 6 mg bid, placebo 8.34). The “treating the overall symptoms of IBS in patients with a mixed or alternating bowel habit (conclusion)” value in series [2] (IBS-M, T 6 mg bid, 4 weeks) is “effective and safe”. The “Most frequent AEs (with discontinuations): diarrhea” value in series [2] (treatment group not stated) worked out at 1.1%. The “Most frequent AEs (with discontinuations): headache” value in series [2] (treatment group not stated) was determined as 0.6%. In addition, in series [2] (treatment group not stated), the “Most frequent AEs (with discontinuations): nausea” value is recorded as 0.3%.
